In this assay the target is human ether-a-go-go-related gene (hERG) potassium channel (Homo sapiens, UniProt Q12809). In words: whole-cell patch clamp, hERG tail current in hERG-HEK-293 cells. It is filed as cell-based.
Chain of human ether-a-go-go-related gene (hERG) potassium channel (Q12809 whole entry): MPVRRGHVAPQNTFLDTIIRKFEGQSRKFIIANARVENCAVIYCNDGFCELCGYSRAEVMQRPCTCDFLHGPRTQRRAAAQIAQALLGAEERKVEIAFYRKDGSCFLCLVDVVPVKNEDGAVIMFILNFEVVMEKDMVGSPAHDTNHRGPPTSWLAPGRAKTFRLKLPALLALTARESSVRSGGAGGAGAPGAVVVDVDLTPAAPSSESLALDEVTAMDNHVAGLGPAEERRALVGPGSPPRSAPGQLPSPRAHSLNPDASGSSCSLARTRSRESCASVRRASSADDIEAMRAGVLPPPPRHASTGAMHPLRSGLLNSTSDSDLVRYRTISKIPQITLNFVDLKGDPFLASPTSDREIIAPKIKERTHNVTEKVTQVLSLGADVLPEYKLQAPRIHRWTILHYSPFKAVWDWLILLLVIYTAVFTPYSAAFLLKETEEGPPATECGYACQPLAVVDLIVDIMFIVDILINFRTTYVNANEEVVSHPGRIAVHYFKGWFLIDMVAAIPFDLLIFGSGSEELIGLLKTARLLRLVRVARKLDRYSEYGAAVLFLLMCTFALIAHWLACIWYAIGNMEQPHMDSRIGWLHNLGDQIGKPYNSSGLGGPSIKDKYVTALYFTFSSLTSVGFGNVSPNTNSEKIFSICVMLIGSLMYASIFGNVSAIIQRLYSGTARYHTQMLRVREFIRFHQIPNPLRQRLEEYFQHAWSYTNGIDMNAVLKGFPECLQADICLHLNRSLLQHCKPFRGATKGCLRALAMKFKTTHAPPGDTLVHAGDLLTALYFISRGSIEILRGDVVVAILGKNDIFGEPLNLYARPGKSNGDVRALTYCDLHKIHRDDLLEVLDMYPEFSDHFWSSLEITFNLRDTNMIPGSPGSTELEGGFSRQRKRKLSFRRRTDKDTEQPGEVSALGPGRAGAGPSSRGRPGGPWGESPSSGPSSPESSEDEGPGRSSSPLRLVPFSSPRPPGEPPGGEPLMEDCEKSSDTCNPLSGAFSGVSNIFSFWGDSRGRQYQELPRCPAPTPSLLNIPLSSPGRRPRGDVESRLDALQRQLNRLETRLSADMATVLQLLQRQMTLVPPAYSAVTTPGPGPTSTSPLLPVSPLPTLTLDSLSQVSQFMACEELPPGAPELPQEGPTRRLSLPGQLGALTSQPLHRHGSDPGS

Turning to `CCN(CCO)CCCC(C)Nc1ccnc2cc(Cl)ccc12` (stereo not shown) [HCQ, Hydroxychloroquine], the IC50 (usually the point on the concentration scale where inhibition reaches its midpoint) is 8.6 µM.

The values are drawn from publication PMC8161735 (Toxicology, 2021).
